Test: xn = mol fraction of the nth substance listed
Conditions: Liquid

Cc1ccccc1 [toluene] + CCCO
mass density [kg/m3]
Conditions	100 kPa	5000 kPa	10000 kPa	15000 kPa	20000 kPa	25000 kPa	30000 kPa
323.15 K, x2 = 0	838.6	842.9	847.2	851.2	855.1	858.9	862.5
323.15 K, x2 = 0.2	828.5	832.9	837.2	841.3	845.2	849	852.6
323.15 K, x2 = 0.4	818.3	822.7	827	831.1	835	838.8	842.4
323.15 K, x2 = 0.6	807.4	811.8	816.1	820.2	824.1	827.9	831.5
323.15 K, x2 = 0.8	794.7	799.1	803.4	807.4	811.3	815	818.6
333.15 K, x2 = 0	829.2	833.7	838.2	842.5	846.6	850.5	854.3
333.15 K, x2 = 0.2	818.7	823.3	827.9	832.3	836.4	840.4	844.2
333.15 K, x2 = 0.4	808.5	813.1	817.8	822.1	826.3	830.3	834.1
333.15 K, x2 = 0.6	797.9	802.5	807.1	811.4	815.6	819.5	823.3
333.15 K, x2 = 0.8	785.6	790.2	794.7	799	803.1	807	810.8
